Measurements reported in ChEMBL document CHEMBL4819155, “Phenolic compounds from the leaves of Crataegus pinnatifida Bge. var. major N.E.Br. And their lipid-lowering effects” (2021).
Active and inactive are the calls of the source. No cut-off for these calls is given here.

Legend:
HepG2 [1] = assay: Hypolipidemic activity against oleic acid/palmitic acid-induced hyperlipidemia in human HepG2 cells assessed as reduction in triglycerides content; format: functional, cell-based
HepG2 [2] = assay: Hypolipidemic activity against oleic acid/palmitic acid-induced hyperlipidemia in human HepG2 cells assessed reduction in total cholesterol level at 0.001 to 10 uM; format: functional, cell-based; conditions: dose 0.001-10 µM
HepG2 [3] = assay: Hypolipidemic activity against oleic acid/palmitic acid-induced hyperlipidemia in human HepG2 cells assessed as reduction in triglycerides content relative to control group; format: functional
HepG2 [4] = assay: Hypolipidemic activity against oleic acid/palmitic acid-induced hyperlipidemia in human HepG2 cells assessed as decrease in triglycerides level at 0.001 to 1 uM; format: functional, cell-based; conditions: dose 0.001-1 µM
HepG2 [5] = assay: Hypolipidemic activity against oleic acid/palmitic acid-induced hyperlipidemia in human HepG2 cells assessed as triglycerides content measured per gm of protein; format: functional
HepG2 [6] = assay: Hypolipidemic activity against oleic acid/palmitic acid-induced hyperlipidemia in human HepG2 cells assessed as decrease in triglycerides level at 0.01 to 1 uM; format: functional, cell-based; conditions: dose 0.01-1 µM
HepG2 [7] = assay: Hypolipidemic activity against oleic acid-induced lipid accumulation in human HepG2 cell model assessed reduction in total cholesterol level; format: functional, cell-based
HepG2 [8] = assay: Hypolipidemic activity against oleic acid/palmitic acid-induced hyperlipidemia in human HepG2 cells assessed reduction in total cholesterol level at 10 uM; format: functional, cell-based
HepG2 [9] = assay: Hypolipidemic activity against oleic acid/palmitic acid-induced hyperlipidemia in human HepG2 cells assessed as decrease in triglycerides level at 0.001 to 10 uM; format: functional, cell-based; conditions: dose 0.001-10 µM

| Structure (SMILES) | Activity (HepG2 [1]) | Activity (HepG2 [5]) | also measured |
| --- | --- | --- | --- |
| Oc1cc(O)c2c(c1)O[C@H](c1ccc(O)c(O)c1)[C@@H](O)C2 | Active |  |  |
| O=C1C[C@@H](c2ccc(O)c(O)c2)c2c(cc(O)c3c2O[C@H](c2cc(O)cc(O)c2)[C@H](O)C3)O1 |  | 0.28 mmol | Activity (HepG2 [2]): Dose-Dependent Effect; inhibition (INH) (HepG2 [3]): 34.92%; Activity (HepG2 [4]): Dose-Dependent Effect |
| O=c1c(O[C@@H]2O[C@H](CO)[C@H](O)[C@H](O)[C@H]2O)c(-c2ccc(O)c(O)c2)oc2cc(O)cc(O)c12 | Active |  |  |
| O=c1cc(-c2ccc(O)cc2)oc2c([C@@H]3O[C@H](CO)[C@@H](O)[C@H](O)[C@H]3O)c(O)cc(O)c12 |  | 0.283 mmol | Activity (HepG2 [2]): Dose-Dependent Effect; Activity (HepG2 [6]): Dose-Dependent Effect; inhibition (HepG2 [3]; dose or concentration not given here): 34.6% |
| O=C1C[C@@H](c2ccc(O)c(O)c2)c2c(cc3c(c2O)C[C@@H](O)[C@@H](c2ccc(O)c(O)c2)O3)O1 | Active |  |  |
| Oc1cc(O)c2c(c1)O[C@H](c1ccc(O)c(O)c1)[C@H](O)C2 | Active |  |  |
| CCC(C)(C)C(=O)O[C@H]1C[C@@H](C)C=C2C=C[C@H](C)[C@H](CC[C@@H]3C[C@@H](O)CC(=O)O3)[C@H]21 | Active |  | Activity (HepG2 [7]): Active |
| O=C(/C=C/c1ccc(O)c(O)c1)O[C@@H]1C[C@](O)(C(=O)O)C[C@@H](O)[C@H]1O | Active |  |  |
| O=c1c(O)c(-c2ccc(O)c(O)c2)oc2cc(O)cc(O)c12 | Active |  |  |
| O=c1cc(-c2ccc(O)cc2)oc2c([C@@H]3O[C@H](CO)[C@@H](O[C@@H]4O[C@H](CO)[C@@H](O)[C@H](O)[C@H]4O)[C@H](O)[C@H]3O)c(O)cc(O)c12 |  | 0.28 mmol | inhibition (INH) (HepG2 [3]): 35.34%; Activity (HepG2 [8]): Active; Activity (HepG2 [9]): Active |
| COc1cc(CO[C@@H]2O[C@H](CO)[C@@H](O)[C@H](O)[C@H]2O)cc(OC)c1OC | Active |  |  |
| O=c1c(O[C@@H]2O[C@H](CO)[C@@H](O)[C@H](O)[C@H]2O)c(-c2ccc(O)c(O)c2)oc2cc(O)cc(O)c12 [ISOQUERCETIN] |  | 0.308 mmol | inhibition (INH) (HepG2 [3]): 30.42%; Activity (HepG2 [7]): inactive; Activity (HepG2 [9]): Active |
| C[C@@H]1O[C@@H](O[C@@H]2[C@@H](O)[C@H](O)[C@@H](CO)O[C@H]2c2c(O)cc(O)c3c(=O)cc(-c4ccc(O)cc4)oc23)[C@H](O)[C@H](O)[C@H]1O | Active |  |  |
